Experimental data: patent publication US12398107B2, “Fungicidal nitroanilino substituted pyrazoles” (FMC Corporation, priority 2018, dated 2025)

How the values were obtained:
Type in all cases: in vivo
[1] = test system: Septoria tritici; test: Test A: wheat leaf blotch, preventive spray on wheat seedlings; conditions: 50 ppm, 100 = 100% disease control, 0 = no control relative to controls; for pest or weed control at 50 ppm: Zymoseptoria tritici, read-out: Test A disease control rating (wheat leaf blotch)
How it was run: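 Preventive test: seedlings sprayed to run-off one day before Septoria tritici spore inoculation, with ppm doses in acetone/water containing 250 ppm PEG400. After 48 h at 24 °C in saturated air and 17 days at 20 °C, plants were scored 0–100 for disease control versus untreated controls.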

[2] = test system: Puccinia recondita f. sp. tritici; test: Test B: wheat leaf rust, preventive spray on wheat seedlings; conditions: 50 ppm, 100 = 100% disease control, 0 = no control relative to controls; for pest or weed control at 50 ppm: read-out: Test B disease control rating (wheat leaf rust)
How it was run: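 Wheat seedlings got a run-off spray (ppm, acetone/water 50/50, 250 ppm PEG400) and one day later a spore inoculum. After 24 h at 20° C. in saturated air and 7 days at 20° C., disease was scored as % control relative to controls (100 = full control).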

[3] = test system: Blumeria graminis f. sp. tritici; test: Test C: wheat powdery mildew, preventive spray on wheat seedlings; conditions: 50 ppm, rated after 8 days, 100 = 100% disease control, 0 = no control; for pest or weed control at 50 ppm: Blumeria graminis, 192 h, read-out: Test C disease control rating (wheat powdery mildew)
How it was run: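 Wheat seedlings got a run-off spray of test suspension (ppm in acetone/water 50/50, 250 ppm PEG400, acetone 3% of volume), then spore-dust inoculation with wheat powdery mildew one day later. After 8 days' growth-chamber incubation at 20° C, disease control scored visually on a 0–100 scale versus untreated controls.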

[4] = test system: Phakopsora pachyrhizi; test: Test D: Asian soybean rust, preventive spray on soybean seedlings; conditions: 50 ppm, 100 = 100% disease control, 0 = no control; for pest or weed control at 50 ppm: Phakopsora pachyrhizi, read-out: Test D disease control rating (Asian soybean rust)
How it was run: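 Soybean seedlings sprayed to run-off with compound suspension (ppm, in 50/50 acetone/water with 250 ppm PEG400), inoculated next day with P. pachyrhizi spores, held 24 h saturated at 22°C then 8 days at 22°C. Visual rating 0-100% disease control relative to controls.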

[5] = test system: Botrytis cinerea; test: Test E: tomato Botrytis, preventive spray on tomato seedlings; conditions: 50 ppm, 100 = 100% disease control, 0 = no control; for pest or weed control at 50 ppm: Botrytis cinerea, read-out: Test E disease control rating (tomato Botrytis)
How it was run: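 Preventive test: spore inoculation one day after run-off spraying of compound suspension (3% acetone, acetone/water 50/50, 250 ppm PEG400). Incubation 20 °C saturated humidity for 48 h, followed by 3 days at 24 °C growth chamber; disease control scored visually, 100 = full control.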

[6] = test system: Alternaria solani; test: Test F: tomato early blight, preventive spray on tomato seedlings; conditions: 50 ppm, 100 = 100% disease control, 0 = no control; for pest or weed control at 50 ppm: Alternaria solani, read-out: Test F disease control rating (tomato early blight)
How it was run: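 Preventive test: one day after seedlings were sprayed to run-off with ppm-level suspensions (acetone/water 50/50, 250 ppm PEG400), A. solani spore inoculation followed. Incubation was 48 h at 27° C in saturated air plus 3 days at 20° C; disease control was scored visually versus controls (100 = full control).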

| Compound | Test A disease control rating (wheat leaf blotch) [1] | Test B disease control rating (wheat leaf rust) [2] | Test C disease control rating (wheat powdery mildew) [3] | Test D disease control rating (Asian soybean rust) [4] | Test E disease control rating (tomato Botrytis) [5] | Test F disease control rating (tomato early blight) [6] | pest or weed control at 50 ppm [1] | pest or weed control at 50 ppm [2] | pest or weed control at 50 ppm [3] | pest or weed control at 50 ppm [4] | pest or weed control at 50 ppm [5] | pest or weed control at 50 ppm [6] |
| --- | --- | --- | --- | --- | --- | --- | --- | --- | --- | --- | --- | --- |
| COc1ccc(Nc2c(-c3c(F)cc(F)cc3F)c(C)nn2C)c([N+](=O)[O-])c1 [Compound 159] | 100% | 100% | 100% | 13% | 99% | 99% | – | – | – | – | – | – |
| Cc1nn(C)c(Nc2c(F)cc(I)cc2[N+](=O)[O-])c1-c1ccc(F)cc1Cl [Compound 47] | 100% | 97% | 89% | 92% | 95% | 96% | – | – | – | – | – | – |
| Cc1nn(C)c(Nc2c(Cl)cccc2[N+](=O)[O-])c1-c1ccc(Cl)cc1Cl [Compound 133] | 100% | 86% | 0% | 0% | 97% | 0% | – | – | – | – | – | – |
| Cc1cc(Cl)c(Nc2c(-c3c(F)cccc3F)c(C)nn2C)c([N+](=O)[O-])c1 [Compound 100] | 100% | 89% | 21% | 0% | 26% | 0% | – | – | – | – | – | – |
| Cc1cccc([N+](=O)[O-])c1Nc1c(-c2c(F)cc(F)cc2F)c(C)nn1C [Compound 167] | 100% | 100% | 98% | 65% | 95% | 98% | – | – | – | – | – | – |
| Cc1nn(C)c(Nc2ccc(OC(F)F)cc2[N+](=O)[O-])c1-c1ccc(F)cc1Cl [Compound 28] | 91% | 68% | 69% | 0% | 99% | 0% | – | – | – | – | – | – |
| CCc1nn(C)c(Nc2ccc(OC)cc2[N+](=O)[O-])c1-c1ccc(F)cc1Cl [Compound 173] | 100% | 100% | 98% | 0% | 98% | 93% | – | – | – | – | – | – |
| Cc1nn(C)c(Nc2ccccc2[N+](=O)[O-])c1-c1ccc(F)cc1Cl [Compound 126] | 98% | 85% | 96% | 0% | 100% | 68% | – | – | – | – | – | – |
| Cc1cc(Cl)c(Nc2c(-c3ccc(Cl)cc3Cl)c(C)nn2C)c([N+](=O)[O-])c1 [Compound 145] | 98% | 92% | 52% | 0% | 85% | 24% | – | – | – | – | – | – |
| Cc1ccc(Nc2c(-c3ccc(F)cc3Br)c(C)nn2C)c([N+](=O)[O-])c1 [Compound 90] | 100% | 95% | 87% | 0% | 99% | 9% | – | – | – | – | – | – |
| COc1cc(Cl)c(Nc2c(-c3ccc(F)cc3F)c(C)nn2C)c([N+](=O)[O-])c1 [Compound 141] | 99% | 100% | 99% | 0% | 99% | 83% | – | – | – | – | – | – |
| Cc1nn(C)c(Nc2c(Cl)cc(Br)cc2[N+](=O)[O-])c1-c1ccc(F)cc1Cl [Compound 8] | 99% | 99% | 92% | 73% | 99% | 73% | – | – | – | – | – | – |
| COc1cc(F)c(-c2c(C)nn(C)c2Nc2c(Cl)cccc2[N+](=O)[O-])c(F)c1 [Compound 160] | 98% | 100% | 96% | 86% | 100% | 99% | – | – | – | – | – | – |
| Cc1nn(C)c(Nc2c(F)cccc2[N+](=O)[O-])c1-c1ccc(C#N)cc1Cl [Compound 113, 3-chloro-4-[5-[(2-fluoro-6-nitrophenyl)amino]-1,3-dimethyl-1H-pyrazol-4-yl]benzonitrile] | – | – | – | – | – | – | 100% | 99% | 97% | 13% | 99% | 99% |
| Cc1nn(C)c(Nc2c(F)cc(Br)cc2[N+](=O)[O-])c1-c1ccc(C#N)cc1Cl [Compound 155] | 99% | 99% | 90% | 0% | 100% | 93% | – | – | – | – | – | – |
| Cc1nn(C)c(Nc2c(Cl)cc(Cl)cc2[N+](=O)[O-])c1-c1ccc(F)cc1F [Compound 101] | 100% | 99% | 89% | 44% | 99% | 0% | – | – | – | – | – | – |
| COc1ccc(-c2c(C)nn(C)c2Nc2c(F)cc(F)cc2[N+](=O)[O-])c(Cl)c1 [Compound 64] | 100% | 100% | 98% | 97% | 98% | 99% | – | – | – | – | – | – |
| COc1ccc(-c2c(C)nn(C)c2Nc2c(F)cc(Cl)cc2[N+](=O)[O-])c(Cl)c1 [Compound 81] | 100% | 99% | 89% | 0% | 95% | 99% | – | – | – | – | – | – |
| Cc1nn(C)c(Nc2ccc(F)cc2[N+](=O)[O-])c1-c1ccc(F)cc1Cl [Compound 111, 4-(2-chloro-4-fluorophenyl)-N-(4-fluoro-2-nitrophenyl)-1,3-dimethyl-1H-pyrazol-5-amine] | – | – | – | – | – | – | 100% | 99% | 99% | 0% | 100% | 93% |
| CCc1nn(C)c(Nc2ccc(C)cc2[N+](=O)[O-])c1-c1ccc(F)cc1Cl [Compound 174] | 100% | 95% | 92% | 0% | 99% | 39% | – | – | – | – | – | – |
